Assay results: PubChem BioAssay (NCI)
Several values for one entry are separate records, joined by “and”; a condition that tells them apart may be missing. Equal entries are not always repeated.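 Results reflect a 48-hour exposure of cells in 96-well plates to compound at five concentrations. GI50 = concentration required for 50% inhibition of growth. Definition used: TGI = concentration required for complete inhibition of growth.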

Tests used:
Assay in all cases: DTP human tumour cell line panel, 48 h
786-0 renal = tested on: 786-0 renal
IGROV1 ovarian = tested on: IGROV1 ovarian
MCF7 breast = tested on: MCF7 breast
MDA-MB-231 breast = tested on: MDA-MB-231 breast
NCI/ADR-RES ovarian = tested on: NCI/ADR-RES ovarian
OVCAR-4 ovarian = tested on: OVCAR-4 ovarian
OVCAR-5 ovarian = tested on: OVCAR-5 ovarian
SK-MEL-28 melanoma = tested on: SK-MEL-28 melanoma
SNB-19 CNS = tested on: SNB-19 CNS
UO-31 renal = tested on: UO-31 renal

Compound	GI50 (786-0 renal)	TGI (786-0 renal)	GI50 (IGROV1 ovarian)	TGI (IGROV1 ovarian)	GI50 (MCF7 breast)	TGI (MCF7 breast)	GI50 (MDA-MB-231 breast)	TGI (MDA-MB-231 breast)	GI50 (NCI/ADR-RES ovarian)	TGI (NCI/ADR-RES ovarian)	GI50 (OVCAR-4 ovarian)	TGI (OVCAR-4 ovarian)	GI50 (OVCAR-5 ovarian)	TGI (OVCAR-5 ovarian)	GI50 (SK-MEL-28 melanoma)	TGI (SK-MEL-28 melanoma)	GI50 (SNB-19 CNS)	TGI (SNB-19 CNS)	GI50 (UO-31 renal)	TGI (UO-31 renal)
COc1c2ccccc2c(O)c2c(=O)c(C(=O)O)cn(C)c12	> 100 µM	> 100 µM	> 100 µM	> 100 µM	> 100 µM	> 100 µM	> 100 µM	> 100 µM	> 100 µM	> 100 µM	> 100 µM	> 100 µM	> 100 µM	> 100 µM	65 µM	> 100 µM	> 100 µM	> 100 µM	> 100 µM	> 100 µM
Nc1ccn([C@H]2C[C@@H](O)[C@@H](CO)S2)c(=O)n1	> 100 µM	> 100 µM	> 100 µM	> 100 µM	> 100 µM	> 100 µM	> 100 µM	> 100 µM	19.6 µM	> 100 µM	> 100 µM	> 100 µM	> 100 µM	> 100 µM	> 100 µM	> 100 µM	> 100 µM	> 100 µM	23.6 µM	> 100 µM
CC(=O)NNc1nc(C)c(C(/C=C/c2ccc(Cl)cc2)=N\NS(=O)(=O)c2ccc(C)cc2)s1	–	> 100 µM	–	> 100 µM	–	–	–	–	–	–	–	> 100 µM	–	> 100 µM	–	> 100 µM	–	> 100 µM	–	> 100 µM
CCC(C(=O)[O-])C(=O)[O-].CCC(C(=O)[O-])C(=O)[O-].N.N.NCCCCCN.[Pt+4].[Pt+4]	> 100 µM	> 100 µM	> 100 µM	> 100 µM	–	–	–	–	–	–	> 100 µM	> 100 µM	> 100 µM	> 100 µM	> 100 µM	> 100 µM	> 100 µM	> 100 µM	> 100 µM	> 100 µM
Cc1ccc(S(=O)(=O)CNC(=S)CCCC(=S)NCS(=O)(=O)c2ccc(C)cc2)cc1	–	> 100 µM	–	> 100 µM	–	–	–	–	–	–	–	> 100 µM	–	> 100 µM	–	–	–	> 100 µM	–	> 100 µM
CC(=O)OCC1OC(OC2CC3C(C)(C)C(OC(C)=O)CC[C@]3(C)C3CCC45CC4(CC[C@H]5C(C)CC(O)C4OC4(C)C)[C@]23C)C(O)C(O)C1O (some centres undefined)	3.58 µM	10.6 µM and 14.1 µM	2.42 µM	0.829 µM and 4.56 µM	–	–	–	–	–	–	15.3 µM	6.27 µM and 38.9 µM	2.02 µM	2.52 µM and 4.46 µM	2.99 µM	7.11 µM and 9.32 µM	4.97 µM	12.4 µM and 17.6 µM	–	11.1 µM and 14.4 µM
CN(C)C(=O)CC(C(=O)O)c1c[nH]c2ccccc12 (centres undefined)	–	> 100 µM	–	> 100 µM	–	–	–	–	–	–	–	> 100 µM	–	–	–	–	–	> 100 µM	–	41.6 µM
CCOc1ccccc1NC(=O)CCc1nnc2s/c(=C\CCc3ccccc3)c(=O)n12	–	> 100 µM	–	> 100 µM	–	–	–	–	–	–	–	> 100 µM	–	> 100 µM	–	> 100 µM	–	> 100 µM	–	> 100 µM
O=C(CC/C(C/C(=N/O)c1ccc(F)cc1)=N/O)N(Cc1ccccc1)Cc1ccccc1	–	> 100 µM	–	> 100 µM	–	–	–	–	–	–	–	> 100 µM	–	> 100 µM	–	> 100 µM	–	> 100 µM	–	> 100 µM
NC(=O)N/N=C(\Cc1nc2ccc(C(=O)c3ccccc3)cc2[nH]c1=O)C(=O)Nc1ccc(Br)cc1	–	> 100 µM	–	> 100 µM	–	–	–	–	–	–	–	> 100 µM	–	> 100 µM	–	> 100 µM	–	> 100 µM	–	> 100 µM
Cc1ccc(-c2ccc(Nc3c4ccccc4nc4ccccc34)cc2)cn1	–	3.42 µM	–	18.4 µM	–	8.91 µM	–	–	–	65.6 µM	–	–	–	69.5 µM	–	9.18 µM	–	> 100 µM	–	13.2 µM
Cn1ccc(=Nc2ccc(NC(=O)c3ccc(N=c4ccn(C)c5ccc([N+](=O)[O-])cc45)cc3)cc2)cc1	56.1 µM	> 100 µM	11.2 µM	> 100 µM	2.36 µM	> 100 µM	6.82 µM	> 100 µM	> 100 µM	> 100 µM	–	–	> 100 µM	> 100 µM	22.9 µM	92.3 µM	0.923 µM	> 100 µM	> 100 µM	> 100 µM
O=C(O)c1cc2ccccc2c(N=Nc2c([N+](=O)[O-])cc([N+](=O)[O-])cc2S(=O)(=O)O)c1O	–	> 100 µM	–	> 100 µM	–	–	–	> 100 µM	–	> 100 µM	–	> 100 µM	–	> 100 µM	–	> 100 µM	–	> 100 µM	–	> 100 µM
Cc1ccc(S(=O)(=O)N2CCC3(C(/C=C/c4ccccc4)=Nc4ccccc43)C2c2ccccc2)cc1 (centres undefined)	–	> 100 µM	–	24.6 µM	–	–	–	–	–	–	–	> 100 µM	–	> 100 µM	–	> 100 µM	–	> 100 µM	–	> 100 µM
COc1cc(/C=C/C(=O)c2cc(F)c(Cl)cc2Cl)cc(OC)c1OC	22.9 µM	97.2 µM	–	–	32.3 µM	> 100 µM	15.7 µM	> 100 µM	23.9 µM	83.8 µM	48.6 µM	> 100 µM	25.2 µM	> 100 µM	32 µM	> 100 µM	39.6 µM	> 100 µM	16.3 µM	32.8 µM
COC(=O)C1=C(C(=O)OC)C23C=CC=CC24C(C(=O)OC)=C(C(=O)OC)C4C1C3 (centres undefined)	–	> 100 µM	–	> 100 µM	–	–	–	–	–	–	–	> 100 µM	–	> 100 µM	–	> 100 µM	–	> 100 µM	–	> 100 µM
CC1C=C(OC(=O)c2ccccc2)C(=O)C(n2cc(F)c(=O)n(C(=O)c3ccccc3)c2=O)O1 (centres undefined)	–	> 100 µM	–	> 100 µM	–	–	–	–	–	–	–	> 100 µM	–	–	–	> 100 µM	–	> 100 µM	–	> 100 µM
CN(C)c1ccc(/C=C2\CNC/C(=C\c3ccc(N(C)C)cc3)C2=O)cc1	–	31.6 µM	–	97.1 µM	–	–	–	–	–	–	–	29.7 µM	–	> 100 µM	–	42 µM	–	–	–	> 100 µM
NC(=O)c1csc(C2C=CC(CO)O2)n1 (centres undefined)	–	> 100 µM	–	> 100 µM	–	–	–	–	–	–	–	> 100 µM	–	> 100 µM	–	> 100 µM	–	> 100 µM	–	> 100 µM
CC(=O)O[C@H]1[C@@H]2[C@@H]3[C@@H](C[C@H]1C)[C@@H](C)CO[C@@]1(C)CC/C=C(/C)C[C@@H]2O[C@@H]31	–	> 100 µM	–	> 100 µM	–	–	–	–	–	–	–	> 100 µM	–	> 100 µM	–	> 100 µM	–	> 100 µM	–	> 100 µM
